The target of test [1] is T1, Ankyrin repeat and protein kinase domain-containing protein 1 (Homo sapiens) (UniProt Q8NFD2).
T1 sequence (whole entry): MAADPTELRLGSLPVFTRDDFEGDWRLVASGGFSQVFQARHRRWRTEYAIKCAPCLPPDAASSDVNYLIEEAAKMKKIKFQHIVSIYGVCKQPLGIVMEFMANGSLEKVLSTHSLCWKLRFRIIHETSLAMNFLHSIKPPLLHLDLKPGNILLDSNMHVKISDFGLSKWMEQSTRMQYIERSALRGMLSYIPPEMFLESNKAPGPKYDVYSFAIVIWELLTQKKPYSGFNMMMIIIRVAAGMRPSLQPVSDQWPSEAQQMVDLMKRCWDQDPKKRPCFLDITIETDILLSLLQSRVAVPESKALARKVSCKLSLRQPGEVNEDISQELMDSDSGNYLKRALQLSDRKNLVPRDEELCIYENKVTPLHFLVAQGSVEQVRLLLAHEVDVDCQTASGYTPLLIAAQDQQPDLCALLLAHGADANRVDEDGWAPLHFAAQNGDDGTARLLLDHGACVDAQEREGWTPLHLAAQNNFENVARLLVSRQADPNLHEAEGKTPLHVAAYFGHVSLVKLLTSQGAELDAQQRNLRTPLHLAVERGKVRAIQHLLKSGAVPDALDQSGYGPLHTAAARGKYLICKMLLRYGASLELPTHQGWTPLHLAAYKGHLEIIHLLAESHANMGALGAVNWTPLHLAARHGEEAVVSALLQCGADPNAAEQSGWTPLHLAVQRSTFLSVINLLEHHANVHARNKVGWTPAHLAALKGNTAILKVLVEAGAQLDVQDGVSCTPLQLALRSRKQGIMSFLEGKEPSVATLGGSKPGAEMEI
The experiment in a line: Selectivity interaction (LanthaScreen Eu Kinase Binding Assay) EUB0001632a ANKK1. The note with it: at 10 µM. A general note: TR-FRET usually uses a lanthanide donor and a delayed reading to cut background.

Test [2] addresses Calcium/calmodulin-dependent protein kinase type 1 (Homo sapiens) (UniProt Q14012). The test can be described thus: Selectivity interaction (KinomeScan (DiscoverX)) EUB0001619a CAMK1. The note with it: at 1 µM.
Test [3] addresses Rho-associated protein kinase 1 (Homo sapiens) (UniProt Q13464). The test can be described thus: Selectivity interaction (KinomeScan (DiscoverX)) EUB0001619a ROCK1. The note with it: at 1 µM.
Test [4] deals with BDNF/NT-3 growth factors receptor (Homo sapiens) (UniProt Q16620). The test can be described thus: Selectivity interaction (SelectScreen profiling (Invitrogen)) EUB0000607a NTRK2. The note with it: at 2 µM.
Chain of BDNF/NT-3 growth factors receptor (Homo sapiens) (Q16620 32-822 limits assumed): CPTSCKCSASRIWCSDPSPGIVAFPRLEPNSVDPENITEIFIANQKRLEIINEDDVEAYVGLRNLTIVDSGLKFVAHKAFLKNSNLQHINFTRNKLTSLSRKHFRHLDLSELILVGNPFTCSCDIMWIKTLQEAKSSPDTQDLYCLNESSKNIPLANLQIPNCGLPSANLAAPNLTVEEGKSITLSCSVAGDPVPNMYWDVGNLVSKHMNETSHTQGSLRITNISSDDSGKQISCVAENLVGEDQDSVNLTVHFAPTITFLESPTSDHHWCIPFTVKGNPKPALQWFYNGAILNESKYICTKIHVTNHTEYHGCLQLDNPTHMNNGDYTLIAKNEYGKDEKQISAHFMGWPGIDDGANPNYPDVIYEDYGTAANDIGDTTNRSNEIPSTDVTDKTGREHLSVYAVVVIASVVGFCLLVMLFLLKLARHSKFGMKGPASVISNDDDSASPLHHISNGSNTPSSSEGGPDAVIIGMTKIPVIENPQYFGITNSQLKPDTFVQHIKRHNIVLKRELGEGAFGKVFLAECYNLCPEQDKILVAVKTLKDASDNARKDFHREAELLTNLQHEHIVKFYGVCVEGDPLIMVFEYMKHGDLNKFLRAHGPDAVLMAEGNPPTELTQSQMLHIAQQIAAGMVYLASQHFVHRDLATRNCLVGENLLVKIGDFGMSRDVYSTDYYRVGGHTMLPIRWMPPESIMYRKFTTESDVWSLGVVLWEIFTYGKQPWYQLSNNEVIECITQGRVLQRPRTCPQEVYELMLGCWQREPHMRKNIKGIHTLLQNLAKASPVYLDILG
The target of test [5] is RAC-gamma serine/threonine-protein kinase (Homo sapiens, UniProt Q9Y243). The test can be described thus: Selectivity interaction (SelectScreen profiling (Invitrogen)) EUB0000607a AKT3. The note with it: at 2 µM.
Chain of RAC-gamma serine/threonine-protein kinase (Q9Y243 whole entry): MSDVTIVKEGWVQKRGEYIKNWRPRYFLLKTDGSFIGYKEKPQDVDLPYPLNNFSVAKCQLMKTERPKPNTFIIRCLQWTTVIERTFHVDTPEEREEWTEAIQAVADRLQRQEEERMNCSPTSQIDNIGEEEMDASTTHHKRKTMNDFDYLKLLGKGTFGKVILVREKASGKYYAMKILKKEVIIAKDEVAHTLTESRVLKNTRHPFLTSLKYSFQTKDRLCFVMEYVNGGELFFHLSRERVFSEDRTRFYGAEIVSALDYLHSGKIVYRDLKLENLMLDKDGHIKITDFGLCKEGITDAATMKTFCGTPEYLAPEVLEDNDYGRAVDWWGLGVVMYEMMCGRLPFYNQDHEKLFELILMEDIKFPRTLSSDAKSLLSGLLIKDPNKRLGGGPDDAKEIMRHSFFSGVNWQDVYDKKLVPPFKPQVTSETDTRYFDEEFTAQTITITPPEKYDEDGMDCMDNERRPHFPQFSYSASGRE
The target in test [6] is Epidermal growth factor receptor (Homo sapiens, UniProt P00533). The test can be described thus: Selectivity interaction (Radiometric kinase assay (using 10 uM ATP)) EUB0000601a EGFR.
Chain of Epidermal growth factor receptor (P00533 whole entry): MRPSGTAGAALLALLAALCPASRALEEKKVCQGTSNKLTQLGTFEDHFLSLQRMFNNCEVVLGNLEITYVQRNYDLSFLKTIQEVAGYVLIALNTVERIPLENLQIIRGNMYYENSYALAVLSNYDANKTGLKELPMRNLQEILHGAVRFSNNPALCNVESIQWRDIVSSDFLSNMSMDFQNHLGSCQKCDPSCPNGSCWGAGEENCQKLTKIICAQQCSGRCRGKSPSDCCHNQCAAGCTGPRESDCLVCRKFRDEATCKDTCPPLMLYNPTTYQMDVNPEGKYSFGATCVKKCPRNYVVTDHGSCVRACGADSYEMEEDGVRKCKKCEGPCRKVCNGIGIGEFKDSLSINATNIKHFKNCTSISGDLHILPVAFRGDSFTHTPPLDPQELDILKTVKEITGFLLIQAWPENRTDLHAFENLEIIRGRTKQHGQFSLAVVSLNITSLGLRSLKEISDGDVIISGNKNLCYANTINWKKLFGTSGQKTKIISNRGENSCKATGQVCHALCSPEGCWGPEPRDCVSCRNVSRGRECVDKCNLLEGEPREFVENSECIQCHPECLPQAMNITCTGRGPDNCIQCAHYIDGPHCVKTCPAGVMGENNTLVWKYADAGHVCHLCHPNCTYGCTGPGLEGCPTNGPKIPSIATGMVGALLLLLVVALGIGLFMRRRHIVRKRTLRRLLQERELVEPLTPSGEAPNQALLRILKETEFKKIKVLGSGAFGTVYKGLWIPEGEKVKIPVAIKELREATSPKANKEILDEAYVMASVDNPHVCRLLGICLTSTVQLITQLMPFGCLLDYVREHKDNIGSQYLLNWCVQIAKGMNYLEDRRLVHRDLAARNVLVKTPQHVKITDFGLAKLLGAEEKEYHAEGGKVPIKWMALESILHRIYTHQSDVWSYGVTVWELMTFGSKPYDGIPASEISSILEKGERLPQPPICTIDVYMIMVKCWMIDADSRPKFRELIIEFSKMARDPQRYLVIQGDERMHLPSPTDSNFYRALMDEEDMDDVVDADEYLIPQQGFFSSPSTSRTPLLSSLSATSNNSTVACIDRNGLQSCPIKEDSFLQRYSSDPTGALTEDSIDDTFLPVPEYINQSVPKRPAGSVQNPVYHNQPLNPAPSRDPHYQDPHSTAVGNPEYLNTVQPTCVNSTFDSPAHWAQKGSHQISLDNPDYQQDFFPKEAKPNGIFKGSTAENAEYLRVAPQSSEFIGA
Test [7] has as its target Serine/threonine-protein kinase PRP4 homolog (Homo sapiens) (UniProt Q13523). The test can be described thus: Selectivity interaction (ActivX KiNativ screen (kinase selectivity in THP-1 cell lysates)) EUB0000639a PRPF4. In kind it is subcellular. Particulars: lysate, at 5 µM.
The target in test [8] is T2, Serine/threonine-protein kinase ICK (Homo sapiens) (UniProt Q9UPZ9).
T2 sequence (whole entry): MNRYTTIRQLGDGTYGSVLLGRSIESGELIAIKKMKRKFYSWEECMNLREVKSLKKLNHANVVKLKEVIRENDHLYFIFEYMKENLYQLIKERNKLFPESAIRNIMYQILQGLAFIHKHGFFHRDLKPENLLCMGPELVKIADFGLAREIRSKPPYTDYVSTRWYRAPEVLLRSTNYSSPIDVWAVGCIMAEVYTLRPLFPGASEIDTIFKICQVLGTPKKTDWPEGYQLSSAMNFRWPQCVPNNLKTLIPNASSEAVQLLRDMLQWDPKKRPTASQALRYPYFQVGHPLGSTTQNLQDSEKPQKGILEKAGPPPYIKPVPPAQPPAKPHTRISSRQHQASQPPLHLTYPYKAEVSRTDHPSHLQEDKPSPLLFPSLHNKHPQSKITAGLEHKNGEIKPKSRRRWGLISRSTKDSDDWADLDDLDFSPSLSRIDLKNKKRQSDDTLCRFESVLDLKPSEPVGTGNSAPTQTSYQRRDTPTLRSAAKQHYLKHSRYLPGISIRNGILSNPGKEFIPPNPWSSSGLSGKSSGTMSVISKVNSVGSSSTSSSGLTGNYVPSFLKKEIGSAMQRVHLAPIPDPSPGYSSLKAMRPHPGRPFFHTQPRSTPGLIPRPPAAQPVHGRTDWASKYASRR
The test can be described thus: Selectivity interaction (KinomeScan (DiscoverX)) EUB0000045b ICK.

The subject of test [9] is Tyrosine-protein kinase ABL1 (Homo sapiens), P00519 [Q252H]. The test can be described thus: Selectivity interaction (KinomeScan (DiscoverX)) EUB0000618a ABL1. Particulars: at 10 µM.
For test [10], the target named is T3, Ephrin type-B receptor 1 (Homo sapiens) (UniProt P54762).
T3 sequence (whole entry): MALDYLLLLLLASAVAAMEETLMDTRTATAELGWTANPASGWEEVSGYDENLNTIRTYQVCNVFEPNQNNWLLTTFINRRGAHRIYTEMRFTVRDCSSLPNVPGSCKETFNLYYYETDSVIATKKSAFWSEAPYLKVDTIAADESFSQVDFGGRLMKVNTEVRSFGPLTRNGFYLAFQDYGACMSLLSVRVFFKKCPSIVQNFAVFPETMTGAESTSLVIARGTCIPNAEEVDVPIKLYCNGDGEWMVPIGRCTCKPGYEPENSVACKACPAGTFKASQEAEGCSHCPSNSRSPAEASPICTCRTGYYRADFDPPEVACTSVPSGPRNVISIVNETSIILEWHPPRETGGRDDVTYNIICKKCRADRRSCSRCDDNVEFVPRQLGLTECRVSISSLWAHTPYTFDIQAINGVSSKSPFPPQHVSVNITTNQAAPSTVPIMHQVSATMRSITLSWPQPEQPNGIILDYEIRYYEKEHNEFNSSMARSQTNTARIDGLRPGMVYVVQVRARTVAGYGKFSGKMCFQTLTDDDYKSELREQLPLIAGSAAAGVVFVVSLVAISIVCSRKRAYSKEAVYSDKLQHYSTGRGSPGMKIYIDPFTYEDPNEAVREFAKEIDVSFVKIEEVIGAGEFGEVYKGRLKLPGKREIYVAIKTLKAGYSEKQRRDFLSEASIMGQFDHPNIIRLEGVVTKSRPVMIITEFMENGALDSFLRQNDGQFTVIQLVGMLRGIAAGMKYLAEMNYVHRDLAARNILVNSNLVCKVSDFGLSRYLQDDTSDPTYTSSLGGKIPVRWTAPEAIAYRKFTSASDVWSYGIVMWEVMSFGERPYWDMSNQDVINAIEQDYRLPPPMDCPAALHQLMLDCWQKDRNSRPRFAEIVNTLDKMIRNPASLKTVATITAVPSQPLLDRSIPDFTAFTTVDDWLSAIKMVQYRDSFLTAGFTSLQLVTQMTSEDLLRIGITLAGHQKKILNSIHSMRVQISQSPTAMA
The test can be described thus: Selectivity interaction (KinomeScan (DiscoverX)) EUB0001079a EPHB1. The note with it: at 1 µM.

Chain of Serine/threonine-protein kinase PRP4 homolog (Homo sapiens) (Q13523 whole entry): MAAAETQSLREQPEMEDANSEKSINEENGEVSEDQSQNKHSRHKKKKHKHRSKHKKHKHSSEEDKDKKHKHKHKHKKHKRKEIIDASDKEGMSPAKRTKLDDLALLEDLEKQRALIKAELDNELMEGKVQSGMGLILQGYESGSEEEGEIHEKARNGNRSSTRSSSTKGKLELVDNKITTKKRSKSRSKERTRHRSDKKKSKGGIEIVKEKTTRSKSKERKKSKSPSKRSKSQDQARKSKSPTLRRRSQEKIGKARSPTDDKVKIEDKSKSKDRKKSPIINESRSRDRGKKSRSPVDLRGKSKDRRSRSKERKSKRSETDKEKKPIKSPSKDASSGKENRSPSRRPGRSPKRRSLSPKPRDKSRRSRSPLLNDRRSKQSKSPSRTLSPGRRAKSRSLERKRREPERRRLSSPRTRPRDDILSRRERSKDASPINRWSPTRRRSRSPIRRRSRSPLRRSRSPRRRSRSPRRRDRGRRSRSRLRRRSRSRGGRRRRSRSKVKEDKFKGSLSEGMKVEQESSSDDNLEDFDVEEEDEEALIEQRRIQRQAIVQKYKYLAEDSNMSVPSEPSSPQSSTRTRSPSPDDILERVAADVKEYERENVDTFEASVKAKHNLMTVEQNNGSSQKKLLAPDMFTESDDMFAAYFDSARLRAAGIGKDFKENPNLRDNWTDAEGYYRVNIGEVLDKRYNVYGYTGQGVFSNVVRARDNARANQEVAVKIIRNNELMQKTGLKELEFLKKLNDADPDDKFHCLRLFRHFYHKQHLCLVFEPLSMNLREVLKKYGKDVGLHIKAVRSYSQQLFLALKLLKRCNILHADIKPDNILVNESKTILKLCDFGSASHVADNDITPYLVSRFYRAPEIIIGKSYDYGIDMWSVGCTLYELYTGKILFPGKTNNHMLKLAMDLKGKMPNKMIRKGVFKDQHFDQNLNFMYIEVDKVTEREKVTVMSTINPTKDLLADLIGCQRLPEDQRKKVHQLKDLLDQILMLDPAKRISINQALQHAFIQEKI
Chain of Calcium/calmodulin-dependent protein kinase type 1 (Homo sapiens) (Q14012 whole entry, looked up): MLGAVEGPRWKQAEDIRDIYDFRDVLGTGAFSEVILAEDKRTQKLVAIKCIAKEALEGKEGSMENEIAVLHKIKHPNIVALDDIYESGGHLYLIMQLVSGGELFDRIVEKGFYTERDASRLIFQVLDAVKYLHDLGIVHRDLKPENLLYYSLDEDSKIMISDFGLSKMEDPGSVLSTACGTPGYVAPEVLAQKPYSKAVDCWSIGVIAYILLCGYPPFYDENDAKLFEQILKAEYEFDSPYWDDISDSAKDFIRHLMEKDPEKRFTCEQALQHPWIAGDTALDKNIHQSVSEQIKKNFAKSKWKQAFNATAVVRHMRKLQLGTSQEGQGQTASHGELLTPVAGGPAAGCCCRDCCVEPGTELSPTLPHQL

For `Cn1cc(-n2cnc3c(NCc4nc5cc(Cl)c(Cl)cc5[nH]4)nc(N4CCOCC4)nc32)cn1`, in test [1], the % of inhibition is -44.9%.

For the molecule `N#Cc1cccc(-c2c[nH]c3ncnc(N4CCOCC4)c23)c1`, the figures for the % of control in test [2] and in test [3] were 89% and 85%, respectively. For the molecule `CNC(=O)Nc1ccc(-c2nc(N3CC4CCC(C3)O4)c3cnn(C4CCC5(CC4)OCCO5)c3n2)cc1`, the % of inhibition in test [4] was found to be 1%; in test [5] it was 2%. Broadly, the IC50 is the concentration that gives 50% inhibition. High values mean weaker potency in that assay, low ones greater potency in that assay. In test [6], `CCc1cc(Nc2nccc(-c3c(-c4ccc(OC)c(C(=O)Nc5c(F)cccc5F)c4)nc4ccccn34)n2)c(OC)cc1N1CCC(N2CCN(S(C)(=O)=O)CC2)CC1` came in with a 50% inhibitory concentration (IC50) greater than 10 µM. For the molecule `CC[C@@H]1[C@H](F)C(=O)N[C@@H]1COc1nccc2cc(C(N)=O)c(OC)cc12` [ZIMLOVISERTIB], in test [7], the % of inhibition was found to be 88.3%. Turning to `C=CC(=O)Nc1cc(-n2c(=O)ccc3cnc4ccc(-c5ccc(NS(C)(=O)=O)cc5)cc4c32)ccc1C`, the % of control in [8] (at 1 µM) and in test [8] (at 10 µM) was 100% each time.

In the case of `O[C@H]1CC[C@H](Nc2ncc3nc(Nc4c(F)cc(F)cc4F)n([C@H]4CCOC4)c3n2)CC1`, in [9], the % of control is 36%.

Take `Nc1cnc(N2CCc3cc(S(=O)(=O)Nc4c(F)cc(Cl)cc4F)cc(N4CCCC4=O)c32)nc1` [TP-020n]: in test [10], the % of control turned out to be 92%.

Source of the values: ChEMBL document CHEMBL5465560, “Selectivity Literature for EUbOPEN Chemogenomic Library” (2024).
